According to ChEMBL document CHEMBL5325501, “Discovery of BWA-522, a First-in-Class and Orally Bioavailable PROTAC Degrader of the Androgen Receptor Targeting N-Terminal Domain for the Treatment of Prostate Cancer” (J Med Chem, 2023):
pIC50: −log10 of the molar value. Activity calls are given as the source filed them. The rule behind the calls is not given here.

Experiments:
[1] = Downregulation of FKBP51 protein level in human VCaP cells at 10 uM incubated for 48 hrs by Western blot analysis relative to control; assay type: functional
[2] = Metabolic stability in human liver microsomes assessed as half-life at 2 uM preincubated for 10 mins in the presence of NADPH followed by compound addition and measured after 60 mins by LC-MS/MS analysis; assay type: ADME, Microsome
[3] = AUC(0 to t) in beagle dog at 5 mg/kg, po measured by LC-MS/MS analysis; assay type: ADME, organism-based, Canis lupus familiaris; design: dose 5 mg/kg, route po; conditions: in vivo
LNCaP [4] = experiment: Antiproliferative activity against AR-dependent human LNCaP cells assessed as reduction in cell viability at 3 to 10 uM incubated for 6 days by CCK-8 assay; assay type: functional, cell-based; conditions: dose 3-10 µM, time 6.0 day
[5] = Toxicity in ICR mouse assessed as testicle damage at 20 to 60 mg/kg, po administered daily for 14 days; assay type: organism-based; conditions: in vivo, 336 h, dose 20-60 mg/kg, time 14 day
[6] = Half-life in beagle dog at 1 mg/kg, iv measured by LC-MS/MS analysis; assay type: ADME, organism-based, Canis lupus familiaris; conditions: in vivo
VCaP [7] = experiment: Downregulation of PSA protein level in human VCaP cells incubated for 48 hrs by Western blot analysis; assay type: functional, cell-based; conditions: dose 1-10 µM
[8] = AUC(0 to t) in ICR mouse at 10 mg/kg, po measured by LC-MS/MS analysis; assay type: ADME, organism-based; design: dose 10 mg/kg, route po; conditions: in vivo
[9] = Toxicity in ICR mouse assessed as liver damage at 20 to 60 mg/kg, po administered daily for 14 days; assay type: organism-based; conditions: in vivo, 336 h, dose 20-60 mg/kg, time 14 day
[10] = Toxicity in ICR mouse assessed as heart damage at 20 to 60 mg/kg, po administered daily for 14 days; assay type: organism-based; conditions: in vivo, 336 h, dose 20-60 mg/kg, time 14 day
LNCaP [11] = experiment: Induction of apoptosis in human LNCaP cells assessed as PARP-1 cleavage at 5 to 10 uM incubated for 48 hrs by Western blot analysis; assay type: functional, cell-based; conditions: dose 5-10 µM
[12] = Downregulation of TMPRSS2 protein level in human LNCaP cells at 10 uM incubated for 48 hrs by Western blot analysis relative to control; assay type: functional
[13] = Tmax in ICR mouse at 2 mg/kg, iv measured by LC-MS/MS analysis; assay type: ADME, organism-based; conditions: in vivo
[14] = Toxicity in NOD SCID mouse xenografted with human LNCaP cells assessed as body weight loss at 20 to 60 mg/kg, po administered daily for 4 weeks; assay type: organism-based; conditions: in vivo, 672 h, dose 20-60 mg/kg
[15] = Downregulation of FKBP51 protein level in human LNCaP cells at 10 uM incubated for 48 hrs by Western blot analysis relative to control; assay type: functional
[16] = Tmax in beagle dog at 5 mg/kg, po measured by LC-MS/MS analysis; assay type: ADME, organism-based, Canis lupus familiaris; conditions: in vivo
PC-3 = experiment: Antiproliferative activity against AR-independent human PC-3 cells assessed as reduction in cell viability at 10 uM incubated for 6 days by CCK-8 assay; assay type: functional, cell-based; conditions: time 6.0 day
[17] = Stability in human plasma assessed as parent compound remaining measured immediately by LC-MS/MS analysis; assay type: ADME, cell-free; conditions: read-out: Stability
[18] = Stability in mouse plasma assessed as parent compound remaining measured after 30 mins by LC-MS/MS analysis; assay type: ADME, cell-free; conditions: read-out: Stability
[19] = Oral bioavailability in beagle dog at 5 mg/kg measured by LC-MS/MS analysis; assay type: ADME, organism-based, Canis lupus familiaris; conditions: in vivo
[20] = Clearance in ICR mouse at 2 mg/kg, iv measured by LC-MS/MS analysis; assay type: ADME, organism-based; conditions: in vivo
[21] = Downregulation of PSA protein level in human VCaP cells at 10 uM incubated for 48 hrs by Western blot analysis relative to control; assay type: functional
VCaP [22] = experiment: Induction of apoptosis in human VCaP cells assessed as PARP-1 cleavage at 5 to 10 uM incubated for 48 hrs by Western blot analysis; assay type: functional, cell-based; conditions: dose 5-10 µM
[23] = Downregulation of TMPRSS2 protein level in human VCaP cells at 10 uM incubated for 48 hrs by Western blot analysis relative to control; assay type: functional
VCaP [24] = experiment: Antiproliferative activity against human VCaP cells assessed as reduction in cell viability incubated for 6 days by CCK-8 assay; assay type: functional, cell-based; conditions: 144 h
CWR22R [25] = experiment: Inhibition of colony formation in human 22Rv1 cells incubated for 2 weeks by crystal violet staining based analysis; assay type: functional, cell-based; conditions: dose 1-10 µM
CWR22R [26] = experiment: Antiproliferative activity against enzalutamide-resistant human 22Rv1 cells assessed as reduction in cell viability incubated for 6 days by CCK-8 assay; assay type: functional, cell-based; conditions: 22Rv1, 144 h
[27] = Stability in mouse plasma assessed as parent compound remaining measured immediately by LC-MS/MS analysis; assay type: ADME, cell-free; conditions: read-out: Stability
[28] = Metabolic stability in mouse liver microsomes assessed as parent compound remaining at 2 uM preincubated for 10 mins in the presence of NADPH followed by compound addition and measured after 60 mins by LC-MS/MS analysis; assay type: ADME, Microsome; conditions: read-out: Stability
[29] = Downregulation of PSA protein level in human LNCaP cells at 10 uM incubated for 48 hrs by Western blot analysis relative to control; assay type: functional
[30] = AUC(0 to t) in beagle dog at 1 mg/kg, iv measured by LC-MS/MS analysis; assay type: ADME, organism-based, Canis lupus familiaris; design: dose 1 mg/kg, route iv; conditions: in vivo
[31] = Half-life in beagle dog at 5 mg/kg, po measured by LC-MS/MS analysis; assay type: ADME, organism-based, Canis lupus familiaris; conditions: in vivo
[32] = AUC(0 to t) in ICR mouse at 2 mg/kg, iv measured by LC-MS/MS analysis; assay type: ADME, organism-based; design: dose 2 mg/kg, route iv; conditions: in vivo
[33] = Metabolic stability in human liver microsomes assessed as intrinsic clearance at 2 uM preincubated for 10 mins in the presence of NADPH followed by compound addition and measured per mg protein after 60 mins by LC-MS/MS analysis; assay type: ADME, Microsome; conditions: read-out: CLH
[34] = Toxicity in ICR mouse assessed as kidney damage at 20 to 60 mg/kg, po administered daily for 14 days; assay type: organism-based; conditions: in vivo, 336 h, dose 20-60 mg/kg, time 14 day

For `CC(C)(c1ccc(OCC2CCN(CC3CCN(c4ccc5c(c4)C(=O)N(C4CCC(=O)NC4=O)C5=O)CC3)CC2)cc1)c1ccc(OC[C@H](O)CCl)cc1` (stereo not given in full), the Activity [1] was roughly 25%, the half-life at 2 µM [2] was 3.12 h and the AUCt [3] was 1411 ng·h/mL. The Activity (LNCaP [4]) was “Active”, the Activity [5] was “Non-Toxic” and the half-life [6] was 9.9 h. The Activity (VCaP [7]) was “Dose-Dependent Effect”, the AUC(0-t) [8] was 5950 ng·h/mL and the Activity [9] was “Non-Toxic”. The Activity [10] was “Non-Toxic”, the Activity (LNCaP [11]) was “Active” and the Activity [12] was roughly 45%. The Tmax [13] was 6 min, the Activity [14] was “Non-Toxic” and the Activity [15] was roughly 25%. For the same compound, the Tmax [16] was 2.8 h, the Activity (PC-3) was “inactive” and the remaining at 0 min [17] was 100%. For the same compound, the remaining at 0.5 h [18] was 90.3%, the F [19] was 69.3% and the clearance [20] was 9.9 mL/min/kg. For the same compound, the Activity [21] was greater than 80%, the Activity (VCaP [22]) was “Active” and the Activity [23] was roughly 40%. The pIC50 (VCaP [24]) was 5.25, the inhibition (CWR22R [25]) was “Dose-Dependent Effect” and the pIC50 (CWR22R [26]) was 5.39. It also gave a remaining at 0 min [27] of 100%, a remaining at 1 h, 2 µM [28] of 78.2% and an Activity [29] of roughly 15%. It also gave an AUCt [30] of 919 ng·h/mL, a half-life [31] of 31.2 h and an AUC(0-t) [32] of 3020 ng·h/mL. The microsomal CLint at 2 µM [33] was 7.4 µL/min/mg and the Activity [34] was “Non-Toxic”.
